{"source": "patent US20080213125A1", "about": "“Apparatus and Method for Using Ozone as a Disinfectant” (Huawei Technologies Co. LTD., priority 2004, published 2008)", "key": {"[1]": {"system": "Herpes Simplex Virus (HSV)", "test": "Experiment #1: ozone gas exposure of virus on surfaces in a chamber"}, "Feline calicivirus (FCV) [2]": {"system": "Feline calicivirus (FCV)", "test": "Experiment #1: ozone gas exposure of virus on surfaces in a chamber"}, "[3]": {"system": "Mulluscum Contagiosum Virus (MCV)"}, "Poliovirus [4]": {"system": "Poliovirus", "settings": "under similar conditions (about 100 ppm chamber)"}, "viruses [5]": {"system": "viruses"}, "HSV [6]": {"system": "HSV", "test": "Experiment #2: ozone inactivation at different locations within a test room", "settings": "28 ppm, 60 minutes exposure; three samples at three locations in test room"}, "FCV": {"system": "FCV", "test": "Experiment #3: reduced ozone doses and high humidity", "settings": "high humidity, 20 ppm to 40 ppm, about 15 minutes"}, "Poliovirus [7]": {"system": "Poliovirus", "settings": "high humidity, 20 ppm to 40 ppm, about 15 minutes"}, "HSV [8]": {"system": "HSV", "test": "Experiment #3: reduced ozone doses and high humidity", "settings": "high humidity, 20 ppm to 40 ppm, about 15 minutes"}, "[9]": {"system": "Herpes Simplex Virus (HSV)", "test": "Experiment #4: ozone gas against dried viruses on surfaces"}, "influenza virus [10]": {"system": "influenza virus"}, "rhinovirus": {"system": "rhinovirus", "test": "Experiment #4: ozone gas against dried viruses on surfaces", "settings": "dried state on glass, plastic, steel, wood and fabric"}, "Poliovirus [11]": {"system": "Poliovirus", "settings": "dried state on glass, plastic, steel, wood and fabric"}, "viruses [12]": {"system": "viruses", "remark": "listed apart in the source"}, "Feline calicivirus (FCV) [13]": {"system": "Feline calicivirus (FCV)"}, "MS2 coliphage": {"system": "MS2 coliphage", "settings": "aqueous, 20 seconds, ozone demand-free 0.05 M phosphate buffer (pH 6.9) at 22 degrees C.; cited from earlier work"}, "Polio-virus type 3": {"system": "Polio-virus type 3", "settings": "aqueous, 20 seconds, ozone demand-free 0.05 M phosphate buffer (pH 6.9) at 22 degrees C.; cited from earlier work"}, "Polio-viruses": {"system": "Polio-viruses", "settings": "aqueous, 1.0 to 1.5 mg ozone/liter (dissolved); cited from earlier work"}, "Polio-virus 1 (PV1)": {"system": "Polio-virus 1 (PV1)", "settings": "steadily flowing water at 20 degrees C. and pH 7; cited from earlier work"}, "Hepatitis A virus [14]": {"system": "Hepatitis A virus", "settings": "aqueous, 60 seconds, 1 mg/L or greater at all pH levels; cited from earlier work"}, "HIV Type 1": {"system": "HIV Type 1", "settings": "2 hours, 1,200 ppm; cited from earlier work"}, "factor VIII": {"target": "factor VIII (Homo sapiens, UniProt P00451)", "sequence (P00451 20-2351)": "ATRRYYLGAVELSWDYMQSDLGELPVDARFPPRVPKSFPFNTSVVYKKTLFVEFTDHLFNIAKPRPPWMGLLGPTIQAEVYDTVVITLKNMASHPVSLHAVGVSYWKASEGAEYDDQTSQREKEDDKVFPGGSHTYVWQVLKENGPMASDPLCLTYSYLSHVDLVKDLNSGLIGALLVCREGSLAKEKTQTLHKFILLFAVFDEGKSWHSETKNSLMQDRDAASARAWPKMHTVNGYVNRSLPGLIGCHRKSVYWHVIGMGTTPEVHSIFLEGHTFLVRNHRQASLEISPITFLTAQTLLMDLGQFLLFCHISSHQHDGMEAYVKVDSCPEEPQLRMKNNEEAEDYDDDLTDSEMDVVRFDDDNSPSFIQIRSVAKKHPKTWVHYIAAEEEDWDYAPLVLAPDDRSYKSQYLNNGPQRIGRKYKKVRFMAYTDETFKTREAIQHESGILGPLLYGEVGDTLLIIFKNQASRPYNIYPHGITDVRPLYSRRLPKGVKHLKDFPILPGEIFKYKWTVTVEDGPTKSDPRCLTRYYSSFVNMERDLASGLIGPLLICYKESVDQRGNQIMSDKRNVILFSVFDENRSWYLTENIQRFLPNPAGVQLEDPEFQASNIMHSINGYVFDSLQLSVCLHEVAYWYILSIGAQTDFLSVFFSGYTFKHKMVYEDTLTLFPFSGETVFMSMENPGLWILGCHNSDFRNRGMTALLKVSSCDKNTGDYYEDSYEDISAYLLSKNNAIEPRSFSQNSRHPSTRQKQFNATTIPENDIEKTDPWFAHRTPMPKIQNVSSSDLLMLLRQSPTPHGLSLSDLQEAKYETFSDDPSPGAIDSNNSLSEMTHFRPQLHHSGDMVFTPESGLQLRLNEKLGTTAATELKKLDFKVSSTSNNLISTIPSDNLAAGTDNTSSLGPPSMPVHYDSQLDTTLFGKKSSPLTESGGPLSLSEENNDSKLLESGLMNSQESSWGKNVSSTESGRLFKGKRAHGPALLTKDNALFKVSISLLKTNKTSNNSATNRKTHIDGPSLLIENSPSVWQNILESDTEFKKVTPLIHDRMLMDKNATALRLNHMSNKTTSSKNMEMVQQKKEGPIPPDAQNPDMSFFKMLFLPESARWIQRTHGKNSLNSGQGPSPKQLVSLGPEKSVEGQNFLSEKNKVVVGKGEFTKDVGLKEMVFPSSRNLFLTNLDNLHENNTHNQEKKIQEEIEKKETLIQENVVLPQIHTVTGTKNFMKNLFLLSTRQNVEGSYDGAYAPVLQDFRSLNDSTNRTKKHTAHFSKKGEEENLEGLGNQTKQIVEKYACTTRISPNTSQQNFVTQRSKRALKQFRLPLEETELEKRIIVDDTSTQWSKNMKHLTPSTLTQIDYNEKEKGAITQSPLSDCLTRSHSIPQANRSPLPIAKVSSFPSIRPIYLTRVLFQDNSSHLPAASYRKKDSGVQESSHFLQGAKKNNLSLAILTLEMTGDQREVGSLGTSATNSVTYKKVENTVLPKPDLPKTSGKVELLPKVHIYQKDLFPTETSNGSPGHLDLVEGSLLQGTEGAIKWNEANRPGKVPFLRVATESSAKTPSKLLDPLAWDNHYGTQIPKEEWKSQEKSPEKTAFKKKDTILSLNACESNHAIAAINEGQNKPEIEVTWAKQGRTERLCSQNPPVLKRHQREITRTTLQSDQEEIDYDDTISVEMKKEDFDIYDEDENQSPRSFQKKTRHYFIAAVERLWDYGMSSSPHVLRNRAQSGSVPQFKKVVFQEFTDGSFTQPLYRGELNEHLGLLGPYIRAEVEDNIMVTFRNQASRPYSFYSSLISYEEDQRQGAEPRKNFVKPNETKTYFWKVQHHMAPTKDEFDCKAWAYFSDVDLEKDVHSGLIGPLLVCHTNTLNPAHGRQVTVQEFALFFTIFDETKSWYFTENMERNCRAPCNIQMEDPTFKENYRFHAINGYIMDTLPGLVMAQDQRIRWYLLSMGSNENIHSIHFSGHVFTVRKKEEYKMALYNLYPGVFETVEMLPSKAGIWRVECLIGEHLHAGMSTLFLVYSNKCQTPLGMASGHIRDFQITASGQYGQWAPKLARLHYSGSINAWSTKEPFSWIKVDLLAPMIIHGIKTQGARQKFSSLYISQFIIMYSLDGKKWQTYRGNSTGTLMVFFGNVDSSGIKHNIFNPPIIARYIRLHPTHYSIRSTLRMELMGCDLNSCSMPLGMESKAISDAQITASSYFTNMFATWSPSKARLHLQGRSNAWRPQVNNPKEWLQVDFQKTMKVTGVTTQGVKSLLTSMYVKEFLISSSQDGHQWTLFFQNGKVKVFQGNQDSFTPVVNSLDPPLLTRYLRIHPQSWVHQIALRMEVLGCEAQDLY", "settings": "plasma and immunoaffinity-purified preparations; 2 hours, 1,200 ppm; cited from earlier work"}, "Human rotavirus [15]": {"system": "Human rotavirus", "settings": "cited from earlier work"}, "[16]": {"system": "Venezuelan equine encephalomyelitis virus", "settings": "aqueous, 45 minutes, 0.025 mg of ozone per liter; control levels 10 (7.25-7.5); cited from earlier work"}, "Poliovirus [17]": {"system": "Poliovirus", "settings": "0.1-2.0 mg/l, aqueous, cited from earlier work"}, "HIV": {"system": "HIV", "settings": "serum and serum-supplemented media; tested 0.5 to 4.0 micrograms/ml−1; cited from earlier work"}, "[18]": {"system": "HEp-2 cell-associated poliovirus (Sabin 1)", "settings": "cited from earlier work"}, "[19]": {"system": "HEp-2 cell-associated coxsackievirus A9", "settings": "aqueous, 30 seconds, 4.06-4.68 mg/liter; cited from earlier work"}, "Influenza virus [20]": {"system": "Influenza virus", "settings": "gaseous, in vivo, 0.5 ppm; cited from earlier work"}, "Human rotavirus [21]": {"system": "Human rotavirus", "settings": "aqueous, 25 μg/ml; cited from earlier work"}, "[22]": {"system": "Vesicular stomatitis virus (VSV)", "settings": "3 to 14 mL of 1.4 mmol/L (65 micrograms/mL) to 1.6 mmoler/L, aqueous; cited from earlier work"}, "bacteriophage phi 6": {"system": "bacteriophage phi 6", "settings": "3 to 14 mL of 1.4 mmol/L (65 micrograms/mL) to 1.6 mmoler/L, aqueous; cited from earlier work"}, "T1 phage": {"system": "T1 phage", "settings": "gaseous, 10 minutes, 10 ppm; cited from earlier work"}, "Influenza virus [23]": {"system": "Influenza virus", "settings": "inhaled, 0.5 ppm; cited from earlier work"}, "[24]": {"system": "Respiratory syncytial virus", "settings": "gaseous, in vitro, 2 hours, 1 ppm; cited from earlier work"}, "Influenza virus [25]": {"system": "Influenza virus", "settings": "continuous, 0.5 ppm; cited from earlier work"}, "Influenza virus [26]": {"system": "Influenza virus", "settings": "3 hours (post infection), 0.6 ppm; cited from earlier work"}, "Hepatitis A virus [27]": {"system": "Hepatitis A virus", "settings": "ozone and UV light, cited from earlier work"}, "type 39 rhinovirus": {"system": "type 39 rhinovirus", "settings": "cited from earlier work"}}, "note": "Several values for one entry are separate records, joined by “and”; a condition that tells them apart may be missing. Equal values may be shown once. Read-outs that look alike come from different tables or passages of the source.", "data": [{"substance": "Ozone", "values": [{"measurement": "reduced the virus", "setting": "[1]; 100 ppm for 20-30 minutes", "result": "more than 99%"}, {"measurement": "inactivated virus infectivity", "setting": "[1]; 100 ppm, 10 minutes", "result": "90-95%"}, {"measurement": "reduced the virus", "setting": "Feline calicivirus (FCV) [2]; 100 ppm for 20-30 minutes", "result": "more than 99%"}, {"measurement": "inactivated virus infectivity", "setting": "Feline calicivirus (FCV) [2]; 100 ppm, 10 minutes", "result": "90-95%"}, {"measurement": "reduced the virus", "setting": "[3]", "result": "more than 99%"}, {"measurement": "inactivation by ozone", "setting": "Poliovirus [4]", "result": "inactivated"}, {"measurement": "susceptibility of viruses to ozone on surfaces", "setting": "viruses [5]", "result": "susceptible"}, {"measurement": "virus inactivation in high humidity versus ambient humidity", "setting": "viruses [5]", "result": "much more efficiently"}, {"measurement": "virus infectivity after exposure", "setting": "viruses [5]", "result": "no vilus infectivity could be detected at all"}, {"measurement": "HSV inactivated (killed)", "setting": "HSV [6]", "result": "98% and 99.4% and 97.8%"}, {"measurement": "inactivated", "setting": "FCV", "result": 99.91, "unit": "%"}, {"measurement": "inactivated", "setting": "Poliovirus [7]", "result": "more than 99.6%"}, {"measurement": "inactivated", "setting": "HSV [8]", "result": "more than 99%"}, {"measurement": "reduced the virus", "setting": "[9]; 100 ppm for 20 to 30 minutes", "result": "more than 99%"}, {"measurement": "inactivation (kill) by ozone gas", "setting": "[9]; dried state on glass, plastic, steel, wood and fabric", "result": "efficiently inactivate"}, {"measurement": "reduced the virus", "setting": "FV", "result": "more than 99%"}, {"measurement": "reduced the virus", "setting": "MCV", "result": "more than 99%"}, {"measurement": "inactivation (kill) by ozone gas", "setting": "influenza virus [10]", "result": "efficiently inactivate"}, {"measurement": "inactivation (kill) by ozone gas", "setting": "corona virus", "result": "efficiently inactivate"}, {"measurement": "inactivation (kill) by ozone gas", "setting": "rhinovirus", "result": "efficiently inactivate"}, {"measurement": "inactivation (kill) by ozone gas", "setting": "Poliovirus [11]", "result": "efficiently inactivate"}, {"measurement": "susceptibility of viruses to ozone on surfaces", "setting": "viruses [12]", "result": "susceptible"}, {"measurement": "virus inactivation in high humidity versus ambient humidity", "setting": "viruses [12]", "result": "much more efficiently"}, {"measurement": "inactivation by the ozone generator", "setting": "Feline calicivirus (FCV) [13]", "result": "efficiently inactivated"}, {"measurement": "MS2 coliphage inactivated", "setting": "MS2 coliphage", "result": ">99.99% of MS2 coliphage"}, {"measurement": "more inactivation observed with MS2 coliphage than with poliovirus type 3", "setting": "Polio-virus type 3", "result": "inactivated, 1.6 log units more"}, {"measurement": "Effectiveness", "setting": "Polio-viruses", "result": "Dependant on the condition"}, {"measurement": "Concentration for complete inactivation of PV1", "setting": "Polio-virus 1 (PV1)", "result": 0.13, "unit": "mg/L"}, {"measurement": "complete inactivation", "setting": "Hepatitis A virus [14]", "result": "complete (5 log) inactivation"}, {"measurement": "inactivation", "setting": "HIV Type 1", "result": ">11 log inactivation (NB."}, {"measurement": "effect on factor VIII activity", "setting": "factor VIII", "result": "Minimal effect on factor VIII"}, {"measurement": "sensitivity of human rotavirus to inactivation compared with simian rotavirus", "setting": "Human rotavirus [15]", "result": "strikingly less sensitive to"}, {"measurement": "inactivation", "setting": "[16]", "result": "Inactivation of 10 (6.5) median median cell culture infective doses"}, {"measurement": "virus inactivated, Step 1", "setting": "Poliovirus [17]; Step 1: 0.2-1.0 s", "result": "Step 1: 95 to 99% of the virus"}, {"measurement": "virus inactivated, Step 2", "setting": "Poliovirus [17]; Step 2: several minutes", "result": "Step 2: remainder inactivated"}, {"measurement": "concentration at which complete inactivation of HIV obtained", "setting": "HIV", "result": "obtained at 4.0 micrograms/ml−1"}, {"measurement": "Effectiveness (inactivation)", "setting": "[18]", "result": "Inactivated cell-associated"}, {"measurement": "Effectiveness (inactivation)", "setting": "[19]", "result": "Inactivated cell-associated"}, {"measurement": "Severity of infection", "setting": "Influenza virus [20]", "result": "Severity of infection reduced"}, {"measurement": "decrease of rotavirus infectivity", "setting": "Human rotavirus [21]", "result": "8 to 9", "unit": "log10 TCID50/ml."}, {"measurement": "inactivated", "setting": "[22]", "result": "Inactivated by greater than 4 log10"}, {"measurement": "inactivated", "setting": "bacteriophage phi 6", "result": "Inactivated by greater than 4 log10"}, {"measurement": "reduction in number of phages", "setting": "T1 phage", "result": 90, "unit": "% reduction in number of"}, {"measurement": "distribution of viral antigen", "setting": "Influenza virus [23]", "result": "well as altered the distribution"}, {"measurement": "spread of infection", "setting": "Influenza virus [23]", "result": "less widespread infection, as"}, {"measurement": "percentage of cells infected, experimental versus control groups", "setting": "[24]", "result": "No difference"}, {"measurement": "acute virus-induced lung injury & residual lung damage", "setting": "Influenza virus [25]", "result": "exposure mitigates acute"}, {"measurement": "mitigated the virus-induced acute lung injury", "setting": "Influenza virus [25]", "result": "approximately 50%. Ozone"}, {"measurement": "proliferation of virus in the lungs as quantitated by infectious virus titers", "setting": "Influenza virus [25]", "result": "Ozone exposure did not alter"}, {"measurement": "virus growth in nose", "setting": "Influenza virus [26]", "result": "Complete inhibition of virus"}, {"measurement": "virus titre after depuration", "setting": "Hepatitis A virus [27]; from 1.72 log TCID50 ml(−1), within 24 h", "result": "[TCID50] ml(−1) to <1 log log TCID50 ml(−1)"}, {"measurement": "virus titre after depuration", "setting": "Hepatitis A virus [27]; from 3.82 log TCID50 ml(−1), within 48 h", "result": "ml(−1) to <1 log TCID50 ml(−1)"}, {"measurement": "adverse effects in experimental group", "setting": "type 39 rhinovirus; human, in vivo", "result": "placebo groups; no adverse"}, {"measurement": "effect on individuals infected with rhinovirus", "setting": "type 39 rhinovirus; human, in vivo", "result": "no effect"}, {"measurement": "viral titres, experimental versus placebo groups", "setting": "type 39 rhinovirus; inhaled, 0.3 ppm, 6 hours per day for five days", "result": "No difference in viral titres"}]}]}
